We go through ten compounds from PMC9234962, “Optimization of Peptide Linker-Based Fluorescent Ligands for the Histamine H1 Receptor” (Journal of Medicinal Chemistry, 2022).

For this experiment, the target named is Nluc-H1R (Homo sapiens, UniProt P35367). The experiment can be described thus: NanoBRET saturation binding assay on Nluc-H1R expressing HEK293T cells. Also noted: expressed in transfected cells. To be noted: saturation binding curves, whole HEK293T cells; for pKD: non-specific with 10 μM mepyramine, mean ± SEM. From the text: Total and non-specific saturation binding curves from NanoBRET saturation binding assay were fitted simultaneously using eq 1: [drawing 4] 1 where Bmax is the maximal specific binding, [B] is the concentration of fluorescent ligand in nM, KD is the equilibrium dissociation constant in nM, M is the slope of the non-specific component, and C is the intercept with the Y axis.
Background: Bioluminescence resonance energy transfer reports proximity on the nanometre scale.

Square brackets hold non-standard residues; d marks the D form. Side chains are listed from the residue outwards. Peptide text beside a SMILES is read from it. * marks the point of attachment. X1 = O=C(COc1ccc(/C=C/C2=[N+]3C(=Cc4ccc(-c5cccs5)n4[B-]3(F)F)C=C2)cc1)*; Propanoyl(3-Pip(4-O-2-BnPh)) = O=C(CCN1CCC(Oc2ccccc2Cc2ccccc2)CC1)*; Ahx = NCCCCCC(=O)O; βAla = NCCC(=O)O

Nluc-H1R, sequence (P35367 whole entry): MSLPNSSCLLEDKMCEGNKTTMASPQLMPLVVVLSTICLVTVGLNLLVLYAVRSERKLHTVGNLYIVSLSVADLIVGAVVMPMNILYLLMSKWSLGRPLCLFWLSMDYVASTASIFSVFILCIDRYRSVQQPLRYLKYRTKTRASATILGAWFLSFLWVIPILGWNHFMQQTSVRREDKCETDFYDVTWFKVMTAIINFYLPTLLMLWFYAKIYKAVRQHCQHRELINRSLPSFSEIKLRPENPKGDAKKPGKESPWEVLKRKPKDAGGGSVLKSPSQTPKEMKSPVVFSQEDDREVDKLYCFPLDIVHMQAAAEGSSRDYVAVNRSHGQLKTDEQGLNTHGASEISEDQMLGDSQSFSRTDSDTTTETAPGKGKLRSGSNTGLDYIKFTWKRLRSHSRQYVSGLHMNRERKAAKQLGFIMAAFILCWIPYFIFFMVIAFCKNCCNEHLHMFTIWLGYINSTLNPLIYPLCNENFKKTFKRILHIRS

For the compound `CC(C)[C@H](NC(=O)CCN1CCC(Oc2ccccc2Cc2ccccc2)CC1)C(=O)N[C@@H](C)C(=O)N[C@@H](CC(N)=O)C(=O)NCCC(=O)N[C@@H](CCCCNC(=O)COc1ccc(/C=C/C2=[N+]3C(=Cc4ccc(-c5cccs5)n4[B-]3(F)F)C=C2)cc1)C(N)=O` [Compound 31b, (S)-N1-(3-(((S)-1-Amino-6-(2-(4-((E)-2-(5,5-difluoro-7-(thiophen-2-yl)-5H-5λ^4,6λ^4-dipyrrolo[1,2-c:2’,1’-f][1,3,2]diazaborinin-3-yl)vinyl)phenoxy)acetamido)-1-oxohexan-2-yl)amino)-3-oxopropyl)-2-((S)-2-((S)-2-(3-(4-(2-benz-ylphenoxy)piperidin-1-yl)propanamido)-3-methylbutanamido)propanamido)succinamide] ({Propanoyl(3-Pip(4-O-2-BnPh))}-VAN[βAla]K(X1)-NH2), the Kd (in general, the free concentration of one partner at which half of the binding sites on the other are occupied at equilibrium, for simple one-to-one binding) is 5 nM and the pKD (commonly the negative decadic logarithm of the KD, by convention in mol/L) is 8.34 ± 0.09.

`C[C@@H](O)[C@H](NC(=O)CCN1CCC(Oc2ccccc2Cc2ccccc2)CC1)C(=O)N[C@@H](CO)C(=O)N[C@@H](CC(N)=O)C(=O)NCCC(=O)N[C@@H](CCCCNC(=O)COc1ccc(/C=C/C2=[N+]3C(=Cc4ccc(-c5cccs5)n4[B-]3(F)F)C=C2)cc1)C(N)=O` [Compound 31c, (S)-N1-(3-(((S)-1-Amino-6-(2-(4-((E)-2-(5,5-difluoro-7-(thiophen-2-yl)-5H-5λ^4,6λ^4-dipyrrolo[1,2-c:2’,1’-f][1,3,2]diazaborinin-3-yl)vinyl)phenoxy)acetamido)-1-oxohexan-2-yl)amino)-3-oxopropyl)-2-((S)-2-((2S,3R)-2-(3-(4-(2-benzylphenoxy)piperidin-1-yl)propanamido)-3-hydroxy-butanamido)-3-hydroxypropanamido)succinamide] ({Propanoyl(3-Pip(4-O-2-BnPh))}-TSN[βAla]K(X1)-NH2) yielded a Kd of 6 nM and a pKD of 8.20 ± 0.07.

For `C[C@H](NC(=O)[C@@H](NC(=O)CCN1CCC(Oc2ccccc2Cc2ccccc2)CC1)[C@@H](C)O)C(=O)N[C@@H](CC(N)=O)C(=O)NCCC(=O)N[C@@H](CCCCNC(=O)COc1ccc(/C=C/C2=[N+]3C(=Cc4ccc(-c5cccs5)n4[B-]3(F)F)C=C2)cc1)C(N)=O` [Compound 31d, (S)-N1-(3-(((S)-1-Amino-6-(2-(4-((E)-2-(5,5-difluoro-7-(thiophen-2-yl)-5H-5λ^4,6λ^4-dipyrrolo[1,2-c:2’,1’-f][1,3,2]diazaborinin-3-yl)vinyl)phenoxy)acetamido)-1-oxohexan-2-yl)amino)-3-oxopropyl)-2-((S)-2-((2S,3R)-2-(3-(4-(2-benzylphenoxy)piperidin-1-yl)propanamido)-3-hydroxybutanamido)propanamido)succinamide] ({Propanoyl(3-Pip(4-O-2-BnPh))}-TAN[βAla]K(X1)-NH2), the Kd worked out at 5 nM and the pKD is recorded as 8.29 ± 0.07.

The compound `CC(C)[C@H](NC(=O)CCN1CCC(Oc2ccccc2Cc2ccccc2)CC1)C(=O)N[C@@H](CO)C(=O)N[C@@H](Cc1ccc(O)cc1)C(=O)NCCC(=O)N[C@@H](CCCCNC(=O)COc1ccc(/C=C/C2=[N+]3C(=Cc4ccc(-c5cccs5)n4[B-]3(F)F)C=C2)cc1)C(N)=O` [Compound 31e, (S)-2-((6S,9S,12S)-16-(4-(2-Benzylphenoxy)piperidin-1-yl)-6-(4-hydroxybenzyl)-9-(hydroxymethyl)-12-isopropyl-5,8,11,14-tetraoxo-4,7,10,13-tetraazahexadecanamido)-6-(2-(4-((E)-2-(5,5-difluoro-7-(thiophen-2-yl)-5H-5λ^4,6λ^4-dipyrrolo[1,2-c:2’,1’-f][1,3,2]diazaborinin-3-yl)vinyl)phenoxy)acetamido)hexanamide] ({Propanoyl(3-Pip(4-O-2-BnPh))}-VSY[βAla]K(X1)-NH2) had a Kd of 16 nM and a pKD of 7.80 ± 0.11.

`CC(C)[C@H](NC(=O)CCN1CCC(Oc2ccccc2Cc2ccccc2)CC1)C(=O)N[C@@H](C)C(=O)N[C@@H](Cc1ccc(O)cc1)C(=O)NCCC(=O)N[C@@H](CCCCNC(=O)COc1ccc(/C=C/C2=[N+]3C(=Cc4ccc(-c5cccs5)n4[B-]3(F)F)C=C2)cc1)C(N)=O` [Compound 31f, (S)-2-((6S,9S,12S)-16-(4-(2-Benzylphenoxy)piperidin-1-yl)-6-(4-hydroxybenzyl)-12-isopropyl-9-methyl-5,8,11,14-tetraoxo-4,7,10,13-tetraazahexadecanamido)-6-(2-(4-((E)-2-(5,5-difluoro-7-(thiophen-2-yl)-5H-5λ^4,6λ^4-di-pyrrolo[1,2-c:2’,1’-f][1,3,2]diazaborinin-3-yl)vinyl)phenoxy)acetamido)hexanamide] ({Propanoyl(3-Pip(4-O-2-BnPh))}-VAY[βAla]K(X1)-NH2): the Kd was 11 nM and the pKD was 7.96 ± 0.11.

On to `C[C@@H](O)[C@H](NC(=O)CCN1CCC(Oc2ccccc2Cc2ccccc2)CC1)C(=O)N[C@@H](CO)C(=O)N[C@@H](Cc1ccc(O)cc1)C(=O)NCCC(=O)N[C@@H](CCCCNC(=O)COc1ccc(/C=C/C2=[N+]3C(=Cc4ccc(-c5cccs5)n4[B-]3(F)F)C=C2)cc1)C(N)=O` [Compound 31g, (S)-2-((6S,9S,12S)-16-(4-(2-Benzylphenoxy)piperidin-1-yl)-6-(4-hydroxybenzyl)-12-((R)-1-hydroxyethyl)-9-(hydroxymethyl)-5,8,11,14-tetraoxo-4,7,10,13-tetraazahexadecanamido)-6-(2-(4-((E)-2-(5,5-difluoro-7-(thiophen-2-yl)-5H-5λ^4,6λ^4-dipyrrolo[1,2-c:2’,1’-f][1,3,2]diazaborinin-3-yl)vinyl)phenoxy)acetamido)hexanamide] ({Propanoyl(3-Pip(4-O-2-BnPh))}-TSY[βAla]K(X1)-NH2), for which binding was characterised by a dissociation constant (Kd) of 7 nM and the pKD was 8.16 ± 0.12.

`C[C@H](NC(=O)[C@@H](NC(=O)CCN1CCC(Oc2ccccc2Cc2ccccc2)CC1)[C@@H](C)O)C(=O)N[C@@H](Cc1ccc(O)cc1)C(=O)NCCC(=O)N[C@@H](CCCCNC(=O)COc1ccc(/C=C/C2=[N+]3C(=Cc4ccc(-c5cccs5)n4[B-]3(F)F)C=C2)cc1)C(N)=O` [Compound 31h, (S)-2-((6S,9S,12S)-16-(4-(2-Benzylphenoxy)piperidin-1-yl)-6-(4-hydroxybenzyl)-12-((R)-1-hydroxyethyl)-9-methyl-5,8,11,14-tetraoxo-4,7,10,13-tetraazahexadecanamido)-6-(2-(4-((E)-2-(5,5-Difluoro-7-(thiophen-2-yl)-5H-5λ^4,6λ^4-dipyrrolo[1,2-c:2’,1’-f][1,3,2]diazaborinin-3-yl)vinyl)phenoxy)acetamido)hexanamide] ({Propanoyl(3-Pip(4-O-2-BnPh))}-TAY[βAla]K(X1)-NH2) displayed a Kd of 6 nM and a pKD of 8.23 ± 0.17.

The compound `CC[C@H](C)[C@H](NC(=O)CCN1CCC(Oc2ccccc2Cc2ccccc2)CC1)C(=O)N[C@@H](CO)C(=O)N[C@@H](CC(N)=O)C(=O)NCCC(=O)N[C@@H](CCCCNC(=O)COc1ccc(/C=C/C2=[N+]3C(=Cc4ccc(-c5cccs5)n4[B-]3(F)F)C=C2)cc1)C(N)=O` [Compound 31i, (S)-N1-(3-(((S)-1-Amino-6-(2-(4-((E)-2-(5,5-difluoro-7-(thiophen-2-yl)-5H-5λ^4,6λ^4-dipyrrolo[1,2-c:2’,1’-f][1,3,2]diazaborinin-3-yl)vinyl)phenoxy)acetamido)-1-oxohexan-2-yl)amino)-3-oxopropyl)-2-((S)-2-((2S,3S)-2-(3-(4-(2-benzylphenoxy)piperidin-1-yl)propanamido)-3-methylpentanamido)-3-hydroxypropanamido)succinamide] ({Propanoyl(3-Pip(4-O-2-BnPh))}-ISN[βAla]K(X1)-NH2) came in with a Kd of 5 nM and a pKD of 8.33 ± 0.09.

For the compound `CC(C)C[C@H](NC(=O)CCN1CCC(Oc2ccccc2Cc2ccccc2)CC1)C(=O)N[C@@H](CO)C(=O)N[C@@H](CC(N)=O)C(=O)NCCC(=O)N[C@@H](CCCCNC(=O)COc1ccc(/C=C/C2=[N+]3C(=Cc4ccc(-c5cccs5)n4[B-]3(F)F)C=C2)cc1)C(N)=O` [Compound 31j, (S)-N1-(3-(((S)-1-Amino-6-(2-(4-((E)-2-(5,5-difluoro-7-(thiophen-2-yl)-5H-5λ^4,6λ^4-dipyrrolo[1,2-c:2’,1’-f][1,3,2]diazaborinin-3-yl)vinyl)phenoxy)acetamido)-1-oxohexan-2-yl)amino)-3-oxopropyl)-2-((S)-2-((S)-2-(3-(4-(2-benzylphenoxy)piperidin-1-yl)propanamido)-4-methylpentanamido)-3-hydroxypropanamido)succinamide] ({Propanoyl(3-Pip(4-O-2-BnPh))}-LSN[βAla]K(X1)-NH2), the affinity, expressed as Kd, was 6 nM and the pKD is listed as 8.23 ± 0.06.

Turning to `CC(C)[C@H](NC(=O)CCN1CCC(Oc2ccccc2Cc2ccccc2)CC1)C(=O)N[C@@H](CO)C(=O)N[C@@H](CC(N)=O)C(=O)NCCC(=O)N[C@@H](CCCCNC(=O)CCCCCNC(=O)COc1ccc(/C=C/C2=[N+]3C(=Cc4ccc(-c5cccs5)n4[B-]3(F)F)C=C2)cc1)C(N)=O` [Compound 38a, (S)-N^1-(3-(((S)-1-Amino-6-(6-(2-(4-((E)-2-(5,5-difluoro-7-(thiophen-2-yl)-5H-4λ^4,5λ^4-dipyrrolo[1,2-c:2’,1’-f][1,3,2]diazaborinin-3-yl)vinyl)phenoxy)acetamido)hexanamido)-1-oxohexan-2-yl)amino)-3-oxopropyl)-2-((S)-2-((S)-2-(3-(4-(2-benzylphenoxy)piperidin-1-yl)propanamido)-3-methylbutanamido)-3-hydroxypropanamido)succinamide] ({Propanoyl(3-Pip(4-O-2-BnPh))}-VSN[βAla]K([Ahx-X1])-NH2), the Kd was 18 nM and the pKD was 7.74 ± 0.06.
